From patent US20250275976A1, “Methods of Treating Neuroinflammatory Conditions” (Athira Pharma, Inc., priority 2022, published 2025)
“And” between values parts separate entries of the source, which are not always exact repeats. Identical values can stand only once. “Also recorded” adds a separate entry of the source. Like-named read-outs stand apart in the source and are kept apart here. Square brackets hold non-standard residues; d marks the D form. Peptide text beside a SMILES is read from it. * marks the point of attachment. pY = N[CH](Cc1ccc(OP(=O)(O)O)cc1)C(=O)O; Hexanoyl = CCCCCC(=O)*; Ahx = NCCCCCC(=O)O

Columns and labels:
[1] = test system: Rat primary cortical neuron cultures; test: Neuroprotection of rat cortical neurons against LPS challenge (Cell Titer-Glo); conditions: at at least one dose tested
Procedure: (§1) To assess the neuroprotective effect of compound treatment against inflammatory insult, primary cultured cortical neurons were subjected to lipopolysaccharide (LPS) treatment for 24h along with various compound doses of compounds of Formula (I) or Compound A19. […] Rat primary cortical neuron cultures were grown at 37° C., 5% C02 in Complete Neurobasal Medium supplemented with B27/GDNF/BDNF containing 10% FBS until maturity. 25 μl of culture volume were seeded in a 384-well plate at 5,000 cells/well, and treated with 1 μM, 100 nM, 10 nM, 1 nM, or 0.1 nM of test compound for 15 minutes. Cells were then subjected to 1 μM LPS challenge for 24 hours. Luminescence measurements to assess relative levels of ATP were performed on an Envision plate reader (Perkin Elmer). Data for DMSO control were set to 100% cell viability, and each group (n=4) were averaged and presented as mean±SEM.

[2] = test system: Rat primary cortical neuron cultures; conditions: LPS 24 h
Procedure: as §1

Prp-TDP43^A315T mice = format: in vivo
Procedure: Extranuclear accumulation of TDP-43 protein is a pathological hallmark of a number of neurological diseases. […] Male Prp-TDP43^A315T mice (N=10 mice per group) at 3 weeks of age were administered daily treatments of test compounds. Compound A19 was administered via subcutaneous injection, and Compound 5a and Compound 6a were administered via oral gavage. After 2 months of treatment, plasma samples were collected for cytokine quantification. […] Plasma IL-6 and TNF-α cytokine expression levels were determined using the ELISA method. The submandibular vein was punctured with a lancet and a blood drop was collected directly on a microtube containing EDTA as anticoagulant. Samples were centrifuged for 15 minutes at 1000×g at 4° C. within 20 minutes of collection. 20 μl of plasma supernatant was stored at −20° C. before ELISA analysis.
Plasma was diluted at 1:10 in sterile PBS, and IL-6 and TNF-α quantification was performed in duplicate for each animal using 10 μl of sample per well in 96-well plates using the ELISA method (IL-6: Signa-Aldrich Cat #RAB0308, TNF-α: Sigma-Aldrich Cat #RAB0477). Statistical analysis was carried out by 2-way ANOVA with Dunnett's multiple comparisons post-test with compound-treated samples compared to vehicle-treated samples.

male CD-1 mice = test: T-maze spontaneous alternation, LPS-induced cognitive deficit; format: in vivo, mouse; conditions: for Spontaneous alternation (%) Mean: LPS 250 μg/kg i.p.; for Recovery (%): saline/vehicle = 100%, LPS/vehicle = 0%; for Reversal of LPS-induced cognitive deficit in T-maze (result in words): ANOVA, Fisher's PLSD, p<0.05, doses as in the value
From the text: Encephalitis refers to inflammation of the brain that may result in brain swelling fever, headache, confusion, and seizures. The source of neuroinflammation can vary widely, including due to viral, bacterial, parasitic, or fungal infection or due to autoimmune diseases. Lipopolysaccharide (LPS) is a bacterial endotoxin that induces an intense neuroinflammatory reaction and has been associated with cognitive decline. The ability of Compound A19 to reverse cognitive decline induced by LPS in a mouse model of encephalitis was studied using a T-maze assay. In a separate substantially similar assay, Compounds 1a and 5a were also assessed.
Spontaneous and continuous alternation is the innate tendency of rodents to alternate free choices in a T-maze (T-CAT) over a series of successive runs. This sequential procedure relies on working memory and is sensitive to various pharmacological manipulations affecting memory processes. The present studies were conducted to evaluate the abilities of Compound A19, Compound 1a and Compound 5a to reverse LPS-induced cognitive deficit in the T-maze assay.
Compound A19 was dissolved in 0.9% NaCl (saline) and vortexed periodically until complete dissolution and with the pH adjusted between 7.4 and 7.8. Compound A19 was used in concentrations of 0.125, 0.1, 0.05, 0.025 and 0.0125 mg/ml which when given in a volume of 10 ml/kg result in doses of 1.25, 1, 0.5, 0.25 and 0.125 mg/kg, respectively. Compound 1a was dissolved at 160 mg/ml in 100% DMSO and vortexed until complete dissolution. Then the above stock solution was diluted in 20% PEG-400 and 78% 0.9% NaCl, whereby the stock solution comprised 2% of the final solution. Compound 1a was used in concentrations of 0.05, 0.2, 0.8, 1.6 and 3.2 mg/ml which when given in a volume of 10 ml/kg result in doses of 0.5, 2, 8, 16 and 32 mg/kg, respectively. Compound 5a was dissolved at 100 mg/ml in 100% DMSO and vortexed until complete dissolution. Then the above stock solution was diluted in 20% PEG-400 and 78% 0.9% NaCl, whereby the stock solution comprised 2% of the final solution. Compound 5a was used in concentrations of 0.125, 0.25, 0.5, 1 and 2 mg/ml which when given in a volume of 10 ml/kg result in doses of 1.25, 2.5, 5, 10 and 20 mg/kg, respectively.
Memantine was dissolved in saline. Memantine was used in concentration of 0.1 and 0.01 mg/ml, which when given in a volume of 10 ml/kg result in a dose of 1 and 0.1 mg/kg, respectively. Memantine is approved for symptomatic treatment of Alzheimer's disease was used as a reference compound.
LPS was dissolved in saline and prepared at a concentration of 0.0125 mg/ml and given intraperitoneally (i.p.) at a dosage volume of 20 ml/kg to yield a dose of 0.25 mg/kg ([…]).
Four to five weeks old male CD-1 mice (Janvier; Le Genest St Isle - France) were used for the study.
LPS was injected i.p. 2 weeks prior the T-maze trial. Compound 1a was tested at doses of 0.5, 2, 8, 16, and 32 mg/kg administered orally (p.o.) for 14 days with last treatment given 60 min before the T-maze trial. Compound 5a was tested at the doses of 1.25, 2.5, 5, 10, and 20 mg/kg administered orally (p.o.) for 14 days with last treatment given 60 min before the T-maze trial. LPS was injected i.p. 2 weeks prior the T-maze trial.
The T-maze apparatus was made of gray Plexiglas with a main stem (55 cm long×10 cm wide×20 cm high) and two arms (30 cm long×10 cm wide×20 cm high) positioned at a 90-degree angle relative to the main stem. A start box (15 cm long×10 cm wide) was separated from the main stem by a guillotine door. Horizontal doors were also provided to close specific arms during the force choice alternation task.
The experimental protocol consisted of a single session, which started with one “forced-choice” trial, followed by 14 “free-choice” trials. In the “forced-choice” trial, the animal was confined 5 seconds in the start arm and was then released while either the left or right goal arm was blocked by a horizontal door. […]

[3] = test system: Rat primary cortical neuron cultures; test: Neuroprotection of rat primary cortical neurons against neurotoxic insults (Cell Titer-Glo viability); format: cell-based; conditions: for Statistical significance vs. insult control (cell viability): Positive Control MK-801 (1 uM)
From the text: HGF/MET signaling activation is expected to protect cells, including neurons, from cell death. […] Hydrogen peroxide (H2O2) treatment produces toxic oxidative stress. Bacteria-derived lipopolysaccharide (LPS) treatment induces inflammatory cell death. Treatment with excess glutamate (Glut) produces excitotoxicity in neuron cultures. Treatment with 1-methyl-4-phenylpyridinium (MPP^+) causes cell death by inhibition of mitochondrial function.
Cells were then subjected to individual conditional insults for 24 hours at the following concentrations: H2O2 at 1 uM, LPS at 1 uM, glutamate at 25 uM, or MPP+ at 500 uM. All treatments contained recombinant human HGF (R&D Systems) at a concentration of 5 ng/ml. MK-801 (Dizocilpine) is a pore blocker of the N-Methyl-D-aspartate (NMDA) receptor, a glutamate receptor, and was used as a positive control.
Data was normalized to DMSO+HGF control set at 100% cell viability.
Data are reported as statistical significance vs. insult control, with NS=not significant, +=p<0.05, ++=p<0.01, and +++=p<0.001.

[4] = 2 months of treatment, doses as in the value
[5] = insult alone 24 h (H2O2 1 uM, Glutamate 25 uM, LPS 1 uM, MPP+ 500 uM), Compound 1a study, Table 2
[6] = insult alone (H2O2 1 uM, Glutamate 25 uM, LPS 1 uM, MPP+ 500 uM), A19 active metabolite study, Table 3

CCC(C)CN1CC2N(C(=O)c3ccc(OC(F)F)cc3)CCC(=O)N2[C@@H](C)C1=O (some centres unmarked) [Compound 2a]
Protection of primary neurons from LPS-stimulated inflammatory toxicity (in words) [1]: protected primary neurons from LPS-stimulated inflammatory toxicity | Significance of neuroprotection vs 1 uM LPS ([2]; dose 0.1 nM): +++ (+++ indicates p<0.001) | Significance of neuroprotection vs 1 uM LPS ([2]; dose 1 nM): +++ (+++ indicates p<0.001) | Significance of neuroprotection vs 1 uM LPS ([2]; dose 10 nM): +++ (+++ indicates p<0.001) | Significance of neuroprotection vs 1 uM LPS ([2]; dose 100 nM): +++ (+++ indicates p<0.001) | Significance of neuroprotection vs 1 uM LPS ([2]; dose 1 μM): +++ (+++ indicates p<0.001)

CCCCCC(=O)NC(Cc1ccc(OP(=O)(O)O)cc1)C(=O)NC(C(=O)NCCCCCC(N)=O)C(C)CC (centres unmarked) [Compound A19] (Hexanoyl-[pY]-Ile-[Ahx]-NH2; configuration not given here)
Significant decrease in plasma cytokine expression after 2 months of treatment: IL-6 (Prp-TDP43^A315T mice; 0.005 mg/kg SC daily): ++++ (++++ = p < 0.0001) | Significant decrease in plasma cytokine expression after 2 months of treatment: TNF-α (Prp-TDP43^A315T mice; 0.005 mg/kg SC daily): ++++ (++++ = p < 0.0001) | Significant decrease in plasma cytokine expression after 2 months of treatment: TNF-α (Prp-TDP43^A315T mice; 0.01 mg/kg SC daily): + (+ = p < 0.05) | Significant decrease in plasma cytokine expression after 2 months of treatment: IL-6 (Prp-TDP43^A315T mice; 0.03 mg/kg SC daily): + (+ = p < 0.05) | Plasma IL-6 expression (result in words) (Prp-TDP43^A315T mice; [4]): significantly reduced TL-6 expression at doses of 0.005, 0.01, and 0.03 mg/kg | Plasma TNF-α expression (result in words) (Prp-TDP43^A315T mice; [4]): significantly reduced TNF-α expression at 0.005 and 0.01 mg/kg | Spontaneous alternation (%) Mean (male CD-1 mice; A19 0.125 mg/kg s.c. daily 14 days, 0.125 mg/kg): 42% and 42.1% | Recovery (%) (male CD-1 mice; A19 0.125 mg/kg s.c., 0.125 mg/kg): -12% | Spontaneous alternation (%) Mean (male CD-1 mice; A19 0.25 mg/kg s.c. daily 14 days, 0.25 mg/kg): 60% | Recovery (%) (male CD-1 mice; A19 0.25 mg/kg s.c.): 62% | Spontaneous alternation (%) Mean (male CD-1 mice; A19 0.5 mg/kg s.c. daily 14 days, 0.5 mg/kg): 64% and 64.3% | Recovery (%) (male CD-1 mice; A19 0.5 mg/kg s.c.): 79% | Spontaneous alternation (%) Mean (male CD-1 mice; A19 1 mg/kg s.c. daily 14 days, 1 mg/kg): 61% and 60.7% | Recovery (%) (male CD-1 mice; A19 1 mg/kg s.c.): 65% | Spontaneous alternation (%) Mean (male CD-1 mice; A19 1.25 mg/kg s.c. daily 14 days, 1.25 mg/kg): 61% and 60.7% | Recovery (%) (male CD-1 mice; A19 1.25 mg/kg s.c., 1.25 mg/kg): 58% | Reversal of LPS-induced cognitive deficit in T-maze (result in words) (male CD-1 mice): significant at all doses except at 0.125 mg/kg; also recorded: reversed the LPS-induced cognitive disruption

C[n+]1ccc(-c2ccccc2)cc1 [MPP+, 1-methyl-4-phenylpyridinium, reference compound]
Insult effect (% viability vs vehicle) [3, 5]: 49.85% | Insult effect (% viability vs vehicle) [3, 6]: 54.3%

CC12CC3CC(C)(C1)CC(N)(C3)C2 [Memantine, reference compound]
Reversal of LPS-induced cognitive deficit in T-maze (result in words) (male CD-1 mice): significant at both doses | Spontaneous alternation (%) Mean (male CD-1 mice; Memantine 0.1 mg/kg i.p. daily 14 days): 64% and 63.6% | Recovery (%) (male CD-1 mice; Memantine 0.1 mg/kg i.p.): 76% | Spontaneous alternation (%) Mean (male CD-1 mice; Memantine 1 mg/kg i.p. daily 14 days): 54% and 54.3% | Recovery (%) (male CD-1 mice; Memantine 1 mg/kg i.p.): 38%

N[C@@H](CCC(=O)O)C(=O)O [Glutamate, glutamate, reference compound]
Insult effect (% viability vs vehicle) [3, 5]: 49.55% | Insult effect (% viability vs vehicle) [3, 6]: 54.4%

C[C@]12N[C@H](Cc3ccccc31)c1ccccc12 [MK-801, Dizocilpine, reference compound]
Statistical significance vs. insult control (cell viability) ([3]; Glutamate (25 uM) insult): +++ (+++=p<0.001) | Statistical significance vs. insult control (cell viability) ([3]; H2O2 (1 uM) insult): +++ (+++=p<0.001) | Statistical significance vs. insult control (cell viability) ([3]; LPS (1 uM) insult): +++ (+++=p<0.001) | Statistical significance vs. insult control (cell viability) ([3]; MPP+ (500 uM) insult): +++ (+++=p<0.001)

OO [Compound H2O2, Hydrogen peroxide, reference compound]
Insult effect (% viability vs vehicle) [3, 5]: 64.23% | Insult effect (% viability vs vehicle) [3, 6]: 59.35%
